The subject of assay [1] is 50 clinically relevant and safety-related off-targets. Briefly: CEREP panel of 50 off-targets (overall). The note with it: for selectivity profile in off-target panel: 10 μM, panel of 50 unrelated off-target receptors and enzymes; for S(90): fraction of targets with more than 90% inhibition at 10 µM; for S(50): fraction of targets with more than 50% inhibition at 10 µM.
Assay [2] concerns Ca2+ channel (L, diltiazem site). The assay is described as follows: Ca2+ channel (L, diltiazem site) (antagonist radioligand). The note with it: 10 µM.
A further assay concerns the target T1, alpha1A (h) (Homo sapiens, UniProt P35348).
T1 sequence (P35348 1-466): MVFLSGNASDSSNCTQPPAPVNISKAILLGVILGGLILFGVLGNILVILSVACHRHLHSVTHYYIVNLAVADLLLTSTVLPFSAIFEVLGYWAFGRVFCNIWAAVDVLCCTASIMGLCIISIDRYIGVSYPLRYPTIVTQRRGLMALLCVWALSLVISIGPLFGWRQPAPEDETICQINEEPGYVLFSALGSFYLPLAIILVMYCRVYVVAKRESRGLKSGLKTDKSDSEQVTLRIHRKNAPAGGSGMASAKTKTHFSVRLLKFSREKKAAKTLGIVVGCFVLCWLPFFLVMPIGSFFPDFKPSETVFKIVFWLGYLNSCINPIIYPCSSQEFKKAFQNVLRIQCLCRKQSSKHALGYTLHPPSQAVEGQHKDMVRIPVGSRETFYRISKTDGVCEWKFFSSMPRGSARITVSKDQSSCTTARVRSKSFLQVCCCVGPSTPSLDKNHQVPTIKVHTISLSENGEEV
Briefly: alpha1A (h) (antagonist radioligand). The note with it: read-out: Inhibition alpha1A (h) (antagonist radioligand).

The next assay concerns the target T2, A3 (h) (Homo sapiens, UniProt P0DMS8).
T2 sequence (P0DMS8 1-318): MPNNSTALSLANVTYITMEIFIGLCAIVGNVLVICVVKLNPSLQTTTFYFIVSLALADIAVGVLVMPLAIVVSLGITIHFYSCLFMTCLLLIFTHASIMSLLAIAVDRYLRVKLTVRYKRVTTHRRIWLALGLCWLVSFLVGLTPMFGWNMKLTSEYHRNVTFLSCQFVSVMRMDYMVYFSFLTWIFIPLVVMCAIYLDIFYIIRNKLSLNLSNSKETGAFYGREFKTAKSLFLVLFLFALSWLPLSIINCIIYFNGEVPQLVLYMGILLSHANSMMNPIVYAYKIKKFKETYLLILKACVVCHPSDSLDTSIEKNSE
The assay is described as follows: A3 (h) (agonist radioligand). The note with it: read-out: Inhibition A3 (h) (agonist radioligand).

The next assay has as its target beta2 (h) (Homo sapiens, UniProt P07550). Briefly: beta2 (h) (antagonist radioligand). The note with it: read-out: Inhibition beta2 (h) (antagonist radioligand).
The target of assay [3] is N neuronal alpha4beta2 (h) (Homo sapiens, UniProt P17787+P43681). The assay is described as follows: N neuronal alpha4beta2 (h) (agonist radioligand). The conditions noted are these: read-out: Inhibition N neuronal alpha4beta2 (h) (agonist radioligand).
N neuronal alpha4beta2 (h), sequence (P43681 29-627 limits assumed): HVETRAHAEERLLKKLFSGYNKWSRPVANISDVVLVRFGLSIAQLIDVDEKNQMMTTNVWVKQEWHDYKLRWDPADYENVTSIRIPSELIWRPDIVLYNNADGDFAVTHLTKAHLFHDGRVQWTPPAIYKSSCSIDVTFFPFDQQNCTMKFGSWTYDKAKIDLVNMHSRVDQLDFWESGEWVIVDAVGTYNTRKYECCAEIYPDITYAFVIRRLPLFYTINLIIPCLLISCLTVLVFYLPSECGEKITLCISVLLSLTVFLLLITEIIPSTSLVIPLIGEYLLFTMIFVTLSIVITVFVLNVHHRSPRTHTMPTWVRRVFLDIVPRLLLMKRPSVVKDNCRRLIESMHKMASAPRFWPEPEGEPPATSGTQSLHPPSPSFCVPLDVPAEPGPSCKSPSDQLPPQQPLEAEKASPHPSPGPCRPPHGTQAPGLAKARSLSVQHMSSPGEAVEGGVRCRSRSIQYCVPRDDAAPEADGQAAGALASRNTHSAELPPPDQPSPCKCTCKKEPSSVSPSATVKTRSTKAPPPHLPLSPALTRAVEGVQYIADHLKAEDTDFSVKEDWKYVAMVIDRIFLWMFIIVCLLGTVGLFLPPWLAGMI
N neuronal alpha4beta2 (h), sequence (P17787 26-502): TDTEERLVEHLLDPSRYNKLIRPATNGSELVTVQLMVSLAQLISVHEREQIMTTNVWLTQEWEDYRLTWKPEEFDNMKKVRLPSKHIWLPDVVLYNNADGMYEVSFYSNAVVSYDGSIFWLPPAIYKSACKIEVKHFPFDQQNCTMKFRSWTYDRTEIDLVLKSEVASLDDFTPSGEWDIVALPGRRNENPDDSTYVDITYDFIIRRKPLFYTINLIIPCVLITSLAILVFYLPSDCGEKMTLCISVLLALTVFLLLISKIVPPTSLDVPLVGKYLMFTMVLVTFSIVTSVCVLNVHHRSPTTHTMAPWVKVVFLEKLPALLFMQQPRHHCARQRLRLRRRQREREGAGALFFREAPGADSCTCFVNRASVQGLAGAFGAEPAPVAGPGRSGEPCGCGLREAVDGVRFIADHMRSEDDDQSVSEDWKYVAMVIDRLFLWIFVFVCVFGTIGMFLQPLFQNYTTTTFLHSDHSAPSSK
The next assay has as its target Estrogen ER alpha (h) (Homo sapiens, UniProt P03372). The assay is described as follows: Estrogen ER alpha (h) (agonist radioligand). The conditions noted are these: read-out: Inhibition Estrogen ER alpha (h) (agonist radioligand).
The next assay addresses T3, AT1 (h) (Homo sapiens, UniProt P30556).
T3 sequence (P30556 1-359): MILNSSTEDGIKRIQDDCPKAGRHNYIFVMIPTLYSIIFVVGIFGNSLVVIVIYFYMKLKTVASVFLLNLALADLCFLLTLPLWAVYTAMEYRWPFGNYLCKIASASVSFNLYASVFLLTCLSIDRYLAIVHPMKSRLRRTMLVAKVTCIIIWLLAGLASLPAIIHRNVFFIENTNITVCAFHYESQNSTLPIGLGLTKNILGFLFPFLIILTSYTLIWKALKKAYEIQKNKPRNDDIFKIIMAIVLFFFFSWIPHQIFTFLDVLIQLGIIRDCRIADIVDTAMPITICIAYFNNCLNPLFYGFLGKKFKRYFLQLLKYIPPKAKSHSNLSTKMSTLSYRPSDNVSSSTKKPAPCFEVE
Briefly: AT1 (h) (antagonist radioligand). The conditions noted are these: read-out: Inhibition AT1 (h) (antagonist radioligand).

The target in a further assay is GSK3beta (h) (Homo sapiens, UniProt P49841). The assay is described as follows: GSK3beta (h). The conditions noted are these: read-out: Inhibition GSK3beta (h).
GSK3beta (h), sequence (P49841 whole entry): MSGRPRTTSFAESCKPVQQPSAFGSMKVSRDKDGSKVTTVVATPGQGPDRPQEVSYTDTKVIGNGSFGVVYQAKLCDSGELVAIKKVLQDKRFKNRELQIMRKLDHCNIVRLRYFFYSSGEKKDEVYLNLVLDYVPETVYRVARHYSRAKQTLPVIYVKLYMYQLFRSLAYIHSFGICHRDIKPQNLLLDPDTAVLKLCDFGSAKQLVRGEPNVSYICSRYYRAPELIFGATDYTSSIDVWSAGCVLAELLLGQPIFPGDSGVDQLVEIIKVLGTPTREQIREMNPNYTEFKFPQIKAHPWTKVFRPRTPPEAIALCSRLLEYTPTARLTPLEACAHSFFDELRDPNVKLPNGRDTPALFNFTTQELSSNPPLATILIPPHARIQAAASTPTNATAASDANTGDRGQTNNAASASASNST
The target of a further assay is T4, M1 (h) (Homo sapiens, UniProt P11229).
T4 sequence (P11229 1-460): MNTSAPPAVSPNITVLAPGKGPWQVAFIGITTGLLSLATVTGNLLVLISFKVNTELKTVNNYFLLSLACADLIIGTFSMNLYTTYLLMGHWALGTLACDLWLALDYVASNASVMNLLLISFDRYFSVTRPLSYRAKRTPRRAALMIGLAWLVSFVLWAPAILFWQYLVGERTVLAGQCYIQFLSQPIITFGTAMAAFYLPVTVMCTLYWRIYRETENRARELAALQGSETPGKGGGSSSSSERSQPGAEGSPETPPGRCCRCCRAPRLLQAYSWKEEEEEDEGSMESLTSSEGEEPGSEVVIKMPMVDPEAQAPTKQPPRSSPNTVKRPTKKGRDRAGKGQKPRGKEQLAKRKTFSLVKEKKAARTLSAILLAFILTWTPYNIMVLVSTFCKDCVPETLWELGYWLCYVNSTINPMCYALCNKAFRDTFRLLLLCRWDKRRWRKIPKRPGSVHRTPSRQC
The assay is described as follows: M1 (h) (antagonist radioligand). The conditions noted are these: read-out: Inhibition M1 (h) (antagonist radioligand).

The next assay deals with beta1 (h) (Homo sapiens, UniProt P08588). Briefly: beta1 (h) (agonist radioligand). The conditions noted are these: read-out: Inhibition beta1 (h) (agonist radioligand).
beta1 (h), sequence (P08588 whole entry): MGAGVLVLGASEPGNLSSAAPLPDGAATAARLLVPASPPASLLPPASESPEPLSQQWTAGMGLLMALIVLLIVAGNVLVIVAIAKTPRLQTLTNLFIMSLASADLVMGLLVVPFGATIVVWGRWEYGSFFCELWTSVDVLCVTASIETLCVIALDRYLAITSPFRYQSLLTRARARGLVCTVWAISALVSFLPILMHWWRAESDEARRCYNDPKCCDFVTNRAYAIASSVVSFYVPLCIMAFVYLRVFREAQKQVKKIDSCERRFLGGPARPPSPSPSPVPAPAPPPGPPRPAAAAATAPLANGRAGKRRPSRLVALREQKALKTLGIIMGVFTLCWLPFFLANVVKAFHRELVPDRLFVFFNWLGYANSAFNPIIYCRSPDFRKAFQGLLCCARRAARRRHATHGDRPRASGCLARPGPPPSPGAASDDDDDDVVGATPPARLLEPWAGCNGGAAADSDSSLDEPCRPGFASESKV

Structures are written as SMILES.

beta2 (h), sequence (P07550 whole entry): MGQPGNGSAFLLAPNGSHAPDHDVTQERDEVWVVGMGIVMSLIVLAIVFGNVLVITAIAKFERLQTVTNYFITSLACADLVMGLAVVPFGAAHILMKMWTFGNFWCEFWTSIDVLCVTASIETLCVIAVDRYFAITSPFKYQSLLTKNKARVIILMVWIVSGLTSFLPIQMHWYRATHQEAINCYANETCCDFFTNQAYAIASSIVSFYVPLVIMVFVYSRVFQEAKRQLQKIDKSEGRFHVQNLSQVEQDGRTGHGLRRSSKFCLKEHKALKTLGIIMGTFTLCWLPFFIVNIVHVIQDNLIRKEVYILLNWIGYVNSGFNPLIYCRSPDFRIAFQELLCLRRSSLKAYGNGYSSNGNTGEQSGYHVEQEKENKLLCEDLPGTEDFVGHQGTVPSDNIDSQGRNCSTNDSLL
Estrogen ER alpha (h), sequence (P03372 whole entry): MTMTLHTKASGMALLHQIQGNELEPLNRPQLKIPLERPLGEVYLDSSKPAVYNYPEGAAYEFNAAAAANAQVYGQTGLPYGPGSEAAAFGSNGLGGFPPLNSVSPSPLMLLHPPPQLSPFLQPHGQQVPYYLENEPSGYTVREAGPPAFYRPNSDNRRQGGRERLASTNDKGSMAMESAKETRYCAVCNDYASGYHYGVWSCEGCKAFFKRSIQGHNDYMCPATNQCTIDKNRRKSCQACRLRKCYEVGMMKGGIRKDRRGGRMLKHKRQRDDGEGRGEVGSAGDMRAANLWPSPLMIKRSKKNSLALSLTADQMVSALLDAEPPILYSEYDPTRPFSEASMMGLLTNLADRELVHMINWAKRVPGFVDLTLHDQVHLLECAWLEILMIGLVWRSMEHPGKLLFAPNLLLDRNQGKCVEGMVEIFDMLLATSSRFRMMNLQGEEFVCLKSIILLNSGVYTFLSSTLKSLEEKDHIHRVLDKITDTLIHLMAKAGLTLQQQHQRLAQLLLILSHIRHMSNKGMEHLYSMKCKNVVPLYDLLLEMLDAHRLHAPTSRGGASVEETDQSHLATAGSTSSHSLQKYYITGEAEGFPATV

What is called inhibition is the change of the read-out against control, counted positive when it falls. Turning to `O=C(O[C@H](CO)C(F)(F)F)N1CC2(CC(CC3=C4C=CC=[N+]4[B-](F)(F)n4cccc43)C2)C1` [Compound 1], the “selectivity profile in off-target panel” value in assay [1] was “very clean selectivity profile”. Further, the “S(90)” value in assay [1] was 0.0%. The “Inhibition Ca2+ channel (L, diltiazem site) (antagonist radioligand)” value (“Inhibition Ca2+ channel” below) in assay [2] is recorded as 20,60%. Further, the inhibition at 10 µM on alpha1A (h) was 7.6%; on A3 (h), -1.6%; at beta2 (h), -3.1%; in assay [3], -18.3%; on Estrogen ER alpha (h), 17.8%; at AT1 (h), -4.3%. Further, the figures for the inhibition at 10 µM at GSK3beta (h), on M1 (h) and on beta1 (h) were 3.2%, 33.5% and -3.3%, respectively.
Consider `O=C1CO[C@H]2CCN(C(=O)N3CC4(CC(CC5=C6C=CC(c7ccc[nH]7)=[N+]6[B-](F)(F)n6cccc65)C4)C3)C[C@H]2N1` [Compound 4a], for which the “selectivity profile in off-target panel” value in assay [1] is recorded as “very clean selectivity profile”. Also, the “S(50)” value in assay [1] was 0.0%. Moreover, in assay [1], the “S(90)” value is 0.0%. Also, the “Inhibition Ca2+ channel” value in assay [2] is given as 6,20%. Besides, the inhibition at 10 µM at alpha1A (h) was 45.5%; on beta2 (h), -6.2%; in assay [3], -0.6%; on Estrogen ER alpha (h), -2.5%; on AT1 (h), -12.5%; at GSK3beta (h) it was -15%. For the same molecule, the results for the inhibition at 10 µM on M1 (h) and at beta1 (h) were 4% and -1.2%, respectively.
Consider `O=C(OC(C(F)(F)F)C(F)(F)F)N1CC2(CC(CC3=C4C=CC=[N+]4[B-](F)(F)n4cccc43)C2)C1` [Compound 2], for which the “selectivity profile in off-target panel” value in [1] is recorded as “very clean selectivity profile”. For the same molecule, the “S(50)” value in [1] is listed as 4.0%. In addition, the “S(90)” value in assay [1] worked out at 0.0%. Moreover, the “Inhibition Ca2+ channel” value in assay [2] was -14,00%. Besides, the inhibition at 10 µM is -4.6% at alpha1A (h); 45% at A3 (h); -0.6% on beta2 (h); -1.7% in assay [3]; -0.8% at Estrogen ER alpha (h); -1.2% at AT1 (h). Further, the inhibition at 10 µM at GSK3beta (h) was -1.7%; at M1 (h), 26%; on beta1 (h), -1.7%.
`O=C(N1CC2(CC(CC3=C4C=CC=[N+]4[B-](F)(F)n4cccc43)C2)C1)N1CC2(CC(n3cnc(C4CC4)n3)C2)C1` [Compound 5]: the “selectivity profile in off-target panel” value in assay [1] is “very clean selectivity profile”. Also, the “S(90)” value in assay [1] is 0.0%. Moreover, in assay [2], the “Inhibition Ca2+ channel” value is given as 1,70%. In addition, the inhibition at 10 µM on alpha1A (h) was 2.1%; at A3 (h), 17.7%; on beta2 (h), 5.4%; in assay [3], -16.6%; on Estrogen ER alpha (h), 35%; at AT1 (h) it was 11.1%. Moreover, the inhibition at 10 µM at GSK3beta (h) is -1.2%; on M1 (h), 14.7%; at beta1 (h), 0.6%.
For the molecule `O=C(OC(C(F)(F)F)C(F)(F)F)N1CC2(CC(CC3=C4C=CC(c5ccc[nH]5)=[N+]4[B-](F)(F)n4cccc43)C2)C1` [Compound 2a], the “selectivity profile in off-target panel” value in assay [1] was “very clean selectivity profile”. For the same molecule, the “S(50)” value in assay [1] is reported as 0.0%. Further, in assay [1], the “S(90)” value was determined as 0.0%. Also, in assay [2], the “Inhibition Ca2+ channel” value was 9,70%. Besides, the inhibition at 10 µM on alpha1A (h) is -3.4%; on A3 (h), 34.8%; at beta2 (h), 1.8%; in assay [3] it was 4.2%; on Estrogen ER alpha (h) it was -13.7%; on AT1 (h) it was 2.5%. For the same molecule, the inhibition at 10 µM is -1.5% on GSK3beta (h), -0.7% on M1 (h) and -3.3% on beta1 (h).

(Values after publication PMC11951083, “Highly Specific Miniaturized Fluorescent Monoacylglycerol Lipase Probes Enable Translational Research” (Journal of the American Chemical Society, 2025).)
